Test results published in PubChem BioAssay AID2060618 (Molecular Pharmacology Branch, DTP, NCI, 2025).

Tested on: 454973-116-R2-J3-PDC spheroids, percent test/control viability
Assay: Anticancer human tumor 454973-116-R2-J3-PDC patient-derived pancreatic carcinoma cell line growth inhibition [CLK]
Conditions: spheroids with HUVEC and MSC; for IC50: curve of first compound; for viability, T/C: stronger effect = lower value
Procedure, shortened: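 Multi-cell-type spheroids combined patient-derived tumor cells with HUVEC endothelial cells and human mesenchymal stem cells. Paired agents were dosed in half-log steps down from about clinical Cmax, or from 10 microM where Cmax was unknown.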
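Further: spheroids exposed to compounds for 7 days before readout.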

**Q.** How did the IC50 (second compound 0.0316 µM) turn out when `C=CC(=O)Nc1cc(Nc2nccc(-c3cn(C)c4ccccc34)n2)c(OC)cc1N(C)CCN(C)C` + CN1CCN(c2cc(C(=O)Nc3cc4cc(-c5cnn(C)c5)ccc4cn3)ccn2)CC1 was run?
**A.** > 300 nM

**Q.** And the IC50 (second compound 0.1 µM)?
**A.** > 300 nM

**Q.** And the IC50 (second compound 0.316 µM)?
**A.** < 0.949 nM

**Q.** And the IC50 (second compound 1 µM)?
**A.** < 0.949 nM

**Q.** And the IC50 (second compound 3.16 µM)?
**A.** < 0.949 nM

**Q.** And the IC50 (second compound 10 µM)?
**A.** < 0.949 nM

**Q.** What about the viability, T/C (second compound 0.0316 µM, first compound 0.000949 µM) of the same compound?
**A.** 95.6%

**Q.** What about the viability, T/C (second compound 0.0316 µM, first compound 0.003 µM) of the same compound?
**A.** 107%

**Q.** And the viability, T/C (second compound 0.0316 µM, first compound 0.00949 µM)?
**A.** 96.8%

**Q.** And the viability, T/C (second compound 0.0316 µM, first compound 0.03 µM)?
**A.** 104%

**Q.** And the viability, T/C (second compound 0.0316 µM, first compound 0.0949 µM)?
**A.** 102%

**Q.** What about the viability, T/C (second compound 0.0316 µM, first compound 0.3 µM) of the same compound?
**A.** 98.3%

**Q.** And the viability, T/C (second compound 0.1 µM, first compound 0.000949 µM)?
**A.** 72.8%

**Q.** What about the viability, T/C (second compound 0.1 µM, first compound 0.003 µM) of the same compound?
**A.** 76.6%

**Q.** And the viability, T/C (second compound 0.1 µM, first compound 0.00949 µM)?
**A.** 77.1%

**Q.** And the viability, T/C (second compound 0.1 µM, first compound 0.03 µM)?
**A.** 77.1%

**Q.** And the viability, T/C (second compound 0.1 µM, first compound 0.0949 µM)?
**A.** 79%

**Q.** And the viability, T/C (second compound 0.1 µM, first compound 0.3 µM)?
**A.** 72%

**Q.** And the viability, T/C (second compound 0.316 µM, first compound 0.000949 µM)?
**A.** 1.85%

**Q.** And the viability, T/C (second compound 0.316 µM, first compound 0.003 µM)?
**A.** 4.04%

**Q.** What about the viability, T/C (second compound 0.316 µM, first compound 0.00949 µM) of the same compound?
**A.** 1.97%

**Q.** What about the viability, T/C (second compound 0.316 µM, first compound 0.03 µM) of the same compound?
**A.** 3.67%

**Q.** What about the viability, T/C (second compound 0.316 µM, first compound 0.0949 µM) of the same compound?
**A.** 1.83%

**Q.** What about the viability, T/C (second compound 0.316 µM, first compound 0.3 µM) of the same compound?
**A.** 1.5%

**Q.** And the viability, T/C (second compound 1 µM, first compound 0.000949 µM)?
**A.** 0.13%

**Q.** What about the viability, T/C (second compound 1 µM, first compound 0.003 µM) of the same compound?
**A.** 0.14%

**Q.** And the viability, T/C (second compound 1 µM, first compound 0.00949 µM)?
**A.** 0.14%

**Q.** What about the viability, T/C (second compound 1 µM, first compound 0.03 µM) of the same compound?
**A.** 0.1%

**Q.** What about the viability, T/C (second compound 1 µM, first compound 0.0949 µM) of the same compound?
**A.** 0.12%

**Q.** And the viability, T/C (second compound 1 µM, first compound 0.3 µM)?
**A.** 0.12%

**Q.** What about the viability, T/C (second compound 3.16 µM, first compound 0.000949 µM) of the same compound?
**A.** 0.15%

**Q.** What about the viability, T/C (second compound 3.16 µM, first compound 0.003 µM) of the same compound?
**A.** 0.21%

**Q.** And the viability, T/C (second compound 3.16 µM, first compound 0.00949 µM)?
**A.** 0.2%

**Q.** And the viability, T/C (second compound 3.16 µM, first compound 0.03 µM)?
**A.** 0.2%

**Q.** And the viability, T/C (second compound 3.16 µM, first compound 0.0949 µM)?
**A.** 1.74%

**Q.** What about the viability, T/C (second compound 3.16 µM, first compound 0.3 µM) of the same compound?
**A.** 0.35%

**Q.** What about the viability, T/C (second compound 10 µM, first compound 0.000949 µM) of the same compound?
**A.** 0.31%

**Q.** What about the viability, T/C (second compound 10 µM, first compound 0.003 µM) of the same compound?
**A.** 0.26%

**Q.** What about the viability, T/C (second compound 10 µM, first compound 0.00949 µM) of the same compound?
**A.** 0.21%

**Q.** And the viability, T/C (second compound 10 µM, first compound 0.03 µM)?
**A.** 0.29%

**Q.** And the viability, T/C (second compound 10 µM, first compound 0.0949 µM)?
**A.** 2.12%

**Q.** What about the viability, T/C (second compound 10 µM, first compound 0.3 µM) of the same compound?
**A.** 2.07%

**Q.** What does the source list for `Nc1ccccc1NC(=O)c1ccc(CNC(=O)OCc2cccnc2)cc1` + CN1CCN(c2cc(C(=O)Nc3cc4cc(-c5cnn(C)c5)ccc4cn3)ccn2)CC1?
**A.** IC50 (second compound 0.0316 µM): 2100 nM; IC50 (second compound 0.1 µM): 1140 nM; IC50 (second compound 0.316 µM): < 31.6 nM; IC50 (second compound 1 µM): < 31.6 nM; IC50 (second compound 3.16 µM): < 31.6 nM; IC50 (second compound 10 µM): < 31.6 nM; viability, T/C (second compound 0.0316 µM, first compound 0.0316 µM): 95.7%; viability, T/C (second compound 0.0316 µM, first compound 0.1 µM): 92.8%; viability, T/C (second compound 0.0316 µM, first compound 0.316 µM): 89.9%; viability, T/C (second compound 0.0316 µM, first compound 1 µM): 74.2%; viability, T/C (second compound 0.0316 µM, first compound 3.16 µM): 36.7%; viability, T/C (second compound 0.0316 µM, first compound 10 µM): 10.9%; viability, T/C (second compound 0.1 µM, first compound 0.0316 µM): 73.5%; viability, T/C (second compound 0.1 µM, first compound 0.1 µM): 76.7%; viability, T/C (second compound 0.1 µM, first compound 0.316 µM): 60.5%; viability, T/C (second compound 0.1 µM, first compound 1 µM): 57.6%; viability, T/C (second compound 0.1 µM, first compound 3.16 µM): 24.1%; viability, T/C (second compound 0.1 µM, first compound 10 µM): 2.49%; viability, T/C (second compound 0.316 µM, first compound 0.0316 µM): 1.31%; viability, T/C (second compound 0.316 µM, first compound 0.1 µM): 1.59%; viability, T/C (second compound 0.316 µM, first compound 0.316 µM): 0.45%; viability, T/C (second compound 0.316 µM, first compound 1 µM): 2.31%; viability, T/C (second compound 0.316 µM, first compound 3.16 µM): 0.06%; viability, T/C (second compound 0.316 µM, first compound 10 µM): 0.18%; viability, T/C (second compound 1 µM, first compound 0.0316 µM): 0.11%; viability, T/C (second compound 1 µM, first compound 0.1 µM): 0.84%; viability, T/C (second compound 1 µM, first compound 0.316 µM): 0.11%; viability, T/C (second compound 1 µM, first compound 1 µM): 0.08%; viability, T/C (second compound 1 µM, first compound 3.16 µM): 0.05%; viability, T/C (second compound 1 µM, first compound 10 µM): 0.07%; viability, T/C (second compound 3.16 µM, first compound 0.0316 µM): 0.13%; viability, T/C (second compound 3.16 µM, first compound 0.1 µM): 0.33%; viability, T/C (second compound 3.16 µM, first compound 0.316 µM): 0.2%; viability, T/C (second compound 3.16 µM, first compound 1 µM): 0.11%; viability, T/C (second compound 3.16 µM, first compound 3.16 µM): 0.1%; viability, T/C (second compound 3.16 µM, first compound 10 µM): 0.77%; viability, T/C (second compound 10 µM, first compound 0.0316 µM): 0.13%; viability, T/C (second compound 10 µM, first compound 0.1 µM): 0.68%; viability, T/C (second compound 10 µM, first compound 0.316 µM): 0.22%; viability, T/C (second compound 10 µM, first compound 1 µM): 0.29%; viability, T/C (second compound 10 µM, first compound 3.16 µM): 0.22%; viability, T/C (second compound 10 µM, first compound 10 µM): 0.18%
